# Data as given in PubChem BioAssay (NCI).
#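 Tested at 5 concentrations; 48 h exposure; 96-well plates; endpoints linearly interpolated, else capped at highest concentration. Definition used: TGI = concentration required for complete inhibition of growth.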
# Key:
# Assay in all cases: growth of human tumour cells (NCI), 48 h
# HT29 colon = tested on: HT29 colon
# MALME-3M melanoma = tested on: MALME-3M melanoma
# NCI-H460 lung = tested on: NCI-H460 lung
# HCT-116 colon = tested on: HCT-116 colon
# OVCAR-5 ovarian = tested on: OVCAR-5 ovarian
# SK-MEL-2 melanoma = tested on: SK-MEL-2 melanoma
# HCT-15 colon = tested on: HCT-15 colon
# MOLT-4 leukemia = tested on: MOLT-4 leukemia
# 786-0 renal = tested on: 786-0 renal
# T-47D breast = tested on: T-47D breast
# HL-60(TB) leukemia = tested on: HL-60(TB) leukemia
# EKVX NSCLC = tested on: EKVX NSCLC
# NCI-H522 lung = tested on: NCI-H522 lung
# HCC-2998 colon = tested on: HCC-2998 colon
# KM12 colon = tested on: KM12 colon
# COLO 205 colon = tested on: COLO 205 colon
# IGROV1 ovarian = tested on: IGROV1 ovarian
# SR leukemia = tested on: SR leukemia
# RXF 393 renal = tested on: RXF 393 renal
# M14 melanoma = tested on: M14 melanoma
Structure (SMILES),TGI (HT29 colon),TGI (MALME-3M melanoma),TGI (NCI-H460 lung),TGI (HCT-116 colon),TGI (OVCAR-5 ovarian),TGI (SK-MEL-2 melanoma),TGI (HCT-15 colon),TGI (MOLT-4 leukemia),TGI (786-0 renal),TGI (T-47D breast),TGI (HL-60(TB) leukemia),TGI (EKVX NSCLC),TGI (NCI-H522 lung),TGI (HCC-2998 colon),TGI (KM12 colon),TGI (COLO 205 colon),TGI (IGROV1 ovarian),TGI (SR leukemia),TGI (RXF 393 renal),TGI (M14 melanoma)
COCC1OC(Sc2ccccc2)C(O)C(OC)C1OC (stereo not given),> 100 µM,> 100 µM,> 100 µM,> 100 µM,> 100 µM,> 100 µM,> 100 µM,> 100 µM,> 100 µM,> 100 µM,> 100 µM,> 100 µM,> 100 µM,> 100 µM,> 100 µM,> 100 µM,> 100 µM,> 100 µM,> 100 µM,> 100 µM
O=C(NC(Cc1c[nH]c2ccccc12)C(=O)Nc1ccc(Br)cc1)OCc1ccccc1 (stereo not given),21.6 µM,34.1 µM,20.1 µM,23.7 µM,35.1 µM,19.2 µM,26.7 µM,38.9 µM,25.2 µM,53 µM,22.2 µM,22.3 µM,28.6 µM,23.1 µM,21.7 µM,24.7 µM,27.6 µM,47.4 µM,22.2 µM,27.6 µM
CCCC[C@@H]1CCN2C[C@@H](O)[C@@H](O)[C@@H]2[C@H]1O,> 100 µM,> 100 µM,> 100 µM,> 100 µM,> 100 µM,> 100 µM,> 100 µM,> 100 µM,> 100 µM,> 100 µM,> 100 µM,> 100 µM,> 100 µM,> 100 µM,> 100 µM,> 100 µM,> 100 µM,> 100 µM,> 100 µM,> 100 µM
CCCn1c2ccccc2c2ccc3c(c21)C(=O)C=CC3=O,> 10 µM,4.02 µM,> 10 µM,3.13 µM,> 10 µM,> 10 µM,4.7 µM,2.26 µM,3.27 µM,5.44 µM,> 2.27 µM,> 7.95 µM,3.54 µM,> 10 µM,> 10 µM,5.17 µM,> 10 µM,0.883 µM,3.87 µM,> 6.11 µM
COc1cc(C(=O)n2c3ccc(Br)cc3c3nc4ccccc4nc32)cc(OC)c1OC,> 100 µM,> 100 µM,> 100 µM,> 100 µM,> 100 µM,> 100 µM,> 100 µM,> 100 µM,> 100 µM,> 100 µM,> 100 µM,> 100 µM,> 100 µM,> 100 µM,> 100 µM,> 100 µM,> 100 µM,> 100 µM,66.4 µM,> 100 µM
CCOC(=O)c1c(NC(=O)c2cccs2)sc2c1CCCC2,> 100 µM,> 74.5 µM,> 100 µM,> 100 µM,> 100 µM,> 100 µM,> 100 µM,> 100 µM,> 100 µM,> 100 µM,> 100 µM,> 100 µM,> 100 µM,> 100 µM,> 100 µM,> 100 µM,> 100 µM,> 100 µM,30.8 µM,> 100 µM
Nc1c2c(nc3cc(F)c(F)cc13)CCC2,> 100 µM,> 100 µM,54 µM,> 100 µM,> 100 µM,> 100 µM,> 100 µM,> 100 µM,> 100 µM,> 100 µM,10.1 µM,> 100 µM,> 100 µM,35.1 µM,> 100 µM,> 100 µM,> 100 µM,> 100 µM,> 100 µM,> 100 µM
CCOC(=O)C1=C(C)N(Cc2ccc(Cl)cc2Cl)C2(O)C=CC(=O)C3C(=O)N(c4ccccc4)C(=O)C132 (stereo not given),3.5 µM,8.67 µM,5.77 µM,> 100 µM,22.3 µM,4.27 µM,3.88 µM,4.93 µM,> 100 µM,3.12 µM,6.67 µM,4.35 µM,3.64 µM,3.54 µM,3.65 µM,3.36 µM,3.51 µM,2.23 µM,2.87 µM,16 µM
N#Cc1nc2ccccc2nc1N1CCN(c2ccc([N+](=O)[O-])cc2)CC1,> 100 µM,> 100 µM,> 100 µM,> 100 µM,> 100 µM,> 100 µM,> 100 µM,1.05 µM,> 100 µM,> 100 µM,> 100 µM,> 100 µM,> 100 µM,> 100 µM,> 100 µM,> 100 µM,> 100 µM,> 100 µM,> 100 µM,> 100 µM
CC(C)(C)NC(NC(C)(C)C)=C(/C=C(/Cl)[N+](=O)[O-])[N+](=O)[O-],> 100 µM,24.4 µM,> 100 µM,> 100 µM,> 100 µM,> 100 µM,> 100 µM,> 100 µM,> 100 µM,> 100 µM,53.5 µM,> 100 µM,> 100 µM,> 100 µM,> 100 µM,60.3 µM,> 100 µM,> 100 µM,> 100 µM,92.5 µM
